Patent publication US11806326B2, “Methods for dopamine modulation in human neurologic diseases” (priority 2018, dated 2023)
Where two headings read alike, the source gives them in different places.

What was measured:
tyrosine hydroxylase [1] = molecular target: T1, tyrosine hydroxylase (Bos taurus, UniProt P17289); conditions: cited from earlier work
T1 construct: in bovine adrenal gland preparations; from tissue; host or cells: bovine (beef) adrenal gland
T1 sequence (P17289 1-491): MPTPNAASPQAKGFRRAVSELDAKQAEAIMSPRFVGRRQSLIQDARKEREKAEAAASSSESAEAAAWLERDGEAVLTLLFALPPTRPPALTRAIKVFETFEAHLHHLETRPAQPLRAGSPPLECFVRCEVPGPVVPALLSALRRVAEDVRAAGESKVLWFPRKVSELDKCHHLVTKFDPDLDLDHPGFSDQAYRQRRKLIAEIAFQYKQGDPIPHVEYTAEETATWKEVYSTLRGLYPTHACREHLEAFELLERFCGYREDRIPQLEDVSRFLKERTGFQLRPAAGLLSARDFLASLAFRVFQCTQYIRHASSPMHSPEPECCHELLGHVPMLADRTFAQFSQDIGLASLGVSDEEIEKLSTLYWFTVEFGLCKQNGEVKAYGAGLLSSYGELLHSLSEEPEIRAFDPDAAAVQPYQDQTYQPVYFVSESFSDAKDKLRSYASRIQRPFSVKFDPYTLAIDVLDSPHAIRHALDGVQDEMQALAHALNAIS

tyrosine hydroxylase [2] = conditions: cited from earlier work
tyrosine hydroxylase [3] = molecular target: tyrosine hydroxylase (Homo sapiens, UniProt P07101); conditions: cited from earlier work
[4] = system: spontaneously hypertensive rats; conditions: cited from earlier work
[5] = system: dopaminergic iPS cells originating from DJ-1 homozygous Parkinson's patients; assay: Chronic inhibition of dopamine synthesis in dopaminergic iPS cells from DJ-1 homozygous Parkinson's patients; format: cell-based, human; conditions: chronic AMPT treatment, FIG. 5
[6] = delivered orally, cited from earlier work
[7] = Table 1A, amino acid analogs inhibiting tyrosine hydroxylase, read-out: Concentration for 50% Inhibition
[8] = Table 1B, concentration 10^−4 M
[9] = Table 1A, concentration 10^−4 M
[10] = Table 1B, catecholamine analogs inhibiting tyrosine hydroxylase, read-out: Concentration for 50% Inhibition

Chain of tyrosine hydroxylase (Homo sapiens, UniProt P07101) (P07101 whole entry): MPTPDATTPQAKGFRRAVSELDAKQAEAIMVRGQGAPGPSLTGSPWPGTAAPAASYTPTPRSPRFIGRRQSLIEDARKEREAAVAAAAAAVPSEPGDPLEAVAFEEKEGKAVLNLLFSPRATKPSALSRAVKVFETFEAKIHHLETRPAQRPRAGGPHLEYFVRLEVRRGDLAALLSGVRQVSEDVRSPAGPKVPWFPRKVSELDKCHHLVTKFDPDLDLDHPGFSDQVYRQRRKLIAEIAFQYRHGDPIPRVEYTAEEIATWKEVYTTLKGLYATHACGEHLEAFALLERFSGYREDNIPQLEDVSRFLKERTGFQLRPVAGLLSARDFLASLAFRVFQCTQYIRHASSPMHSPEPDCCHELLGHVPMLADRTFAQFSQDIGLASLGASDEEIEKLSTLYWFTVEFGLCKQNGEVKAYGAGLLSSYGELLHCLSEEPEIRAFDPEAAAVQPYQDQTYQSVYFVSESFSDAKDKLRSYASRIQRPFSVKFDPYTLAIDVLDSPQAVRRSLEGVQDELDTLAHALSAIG

## N[C@@H](Cc1ccc(O)c(I)c1)C(=O)O [3-iodo-L-tyrosine]
Tyrosine hydroxylase [1]; [7]
  IC50: 0.5 µM

## CC(N)(Cc1ccc(O)c(F)c1)C(=O)O (racemic) [3-fluoro-α-methyl-DL-tyrosine]
Tyrosine hydroxylase [1]; [7]
  IC50: 200 µM

## C[C@@](N)(Cc1ccc(O)cc1)C(=O)O [α-methyl-D-tyrosine]
Tyrosine hydroxylase [1]; [7]
  IC50: > 1000 µM

## NCCc1ccc(O)c(O)c1 [dopamine]
Tyrosine hydroxylase [2]; [8]
  % Inhibition: 56%

## N[C@@H](Cc1c[nH]c2ccccc12)C(=O)O [L-tryptophan]
Tyrosine hydroxylase [2]; [9]
  % Inhibition: 50%
Tyrosine hydroxylase [1]; [7]
  IC50: > 1000 µM

## CC(N)(Cc1ccc(O)c(Cl)c1)C(=O)O (racemic) [3-chloro-α-methyl-DL-tyrosine]
Tyrosine hydroxylase [1]; [7]
  IC50: 5 µM

## NC(=O)Cc1ccc(O)c(O)c1 [3,4-dihydroxyphenyl-acetamide]
Tyrosine hydroxylase [1]; [10]
  IC50: 1000 µM

## N[C@@H](Cc1ccc(O)c(O)c1)C(=O)O [L-dopa]
Tyrosine hydroxylase [2]; [8]
  % Inhibition: 68%

## N[C@H](Cc1ccc(O)c(O)c1)C(=O)O [D-dopa]
Tyrosine hydroxylase [2]; [8]
  % Inhibition: 0%

## CC(N)(Cc1ccc(O)c(I)c1)C(=O)O (racemic) [3-iodo-α-methyl-DL-tyrosine]
Tyrosine hydroxylase [1]; [7]
  IC50: 0.3 µM

## NC(Cc1ccc(F)cc1)C(=O)O (racemic) [DL-p-fluoro-phenylalanine]
Tyrosine hydroxylase [2]; [9]
  % Inhibition: 61%

## CC(N)(Cc1ccccc1)C(=O)O (racemic) [α-methyl-DL-phenylalanine]
Tyrosine hydroxylase [1]; [7]
  IC50: 80 µM

## CC(N)(Cc1cccc(O)c1)C(=O)O (racemic) [α-methyl-m-DL-tyrosine]
Tyrosine hydroxylase [2]; Table 1A, concentration 2 × 10−4 M
  % Inhibition: 92%
Tyrosine hydroxylase [1]; [7]
  IC50: > 1000 µM

## CNC[C@H](O)c1ccc(O)c(O)c1 [L-epinephrine]
Tyrosine hydroxylase [2]; [8]
  % Inhibition: 35%

## N[C@H](Cc1c[nH]c2ccccc12)C(=O)O [D-tryptophan]
Tyrosine hydroxylase [2]; [9]
  % Inhibition: 0%

## COc1ccc(CC(C)(N)C(=O)O)cc1Cl (racemic) [3-chloro-4-methoxy-α-methyl-DL-phenylalanine]
Tyrosine hydroxylase [1]; [7]
  IC50: 500 µM

## CCC[C@H]1CCC(=C2C(=O)CCC2=O)O1 [Oudenone, oudenone]
Tyrosine hydroxylase [3]; directly measured
  tyrosine hydroxylase inhibition (in words): inhibit tyrosine hydroxylase
[4]
  effect on blood pressure: reduce blood pressure

## CCCC(C(N)=O)c1ccc(O)c(O)c1 (stereo not drawn) [3,4-dihydroxyphenyl-propyl-acetamide]
Tyrosine hydroxylase [2]; [8]
  % Inhibition: 84%
Tyrosine hydroxylase [1]; [10]
  IC50: 20 µM

## N[C@@H](Cc1ccc(O)c(O)c1)C(=O)O [3,4-hydroxy-L-phenylalanine]
Tyrosine hydroxylase [1]; [10]
  IC50: 2000 µM

## NC[C@@H](O)c1ccc(O)c(O)c1 [L-norepinephrine]
Tyrosine hydroxylase [1]; [10]
  IC50: 1000 µM

## N[C@H](Cc1ccccc1)C(=O)O [D-phenylalanine]
Tyrosine hydroxylase [2]; [9]
  % Inhibition: 7%
Tyrosine hydroxylase [1]; [7]
  IC50: > 1000 µM

## CNC[C@H](O)c1ccc(O)c(O)c1 [D-epinephrine]
Tyrosine hydroxylase [2]; [8]
  % Inhibition: 47%

## N[C@H](Cc1ccc(O)c(O)c1)C(=O)O [3,4-hydroxy-D-phenylalanine]
Tyrosine hydroxylase [1]; [10]
  IC50: > 4000 µM

## C[C@H]1O[C@@H](c2ccc3c(c2O)C(=O)C2=C(C3=O)[C@@]3(O)C(=O)C[C@](C)(O)C[C@@]3(O)C=C2)C[C@@H](O)[C@@H]1O [aquayamycin]
Tyrosine hydroxylase [3]; compared with 3-iodo-α-methyl-DL-tyrosine
  potency as tyrosine hydroxylase inhibitor (in words): near that reported for 3-iodo-α-methyl-DL-tyrosine

## NC[C@H](O)c1ccc(O)c(O)c1 (racemic) [DL-norepinephrine]
Tyrosine hydroxylase [2]; Table 1B, concentration 2 × 10^−4 M
  % Inhibition: 53%

## N[C@@H](Cc1ccc(O)c(Cl)c1)C(=O)O [3-chloro-L-tyrosine]
Tyrosine hydroxylase [1]; [7]
  IC50: 10 µM

## N[C@@H](Cc1ccccc1)C(=O)O [L-phenylalanine]
Tyrosine hydroxylase [2]; [9]
  % Inhibition: 78%
Tyrosine hydroxylase [1]; [7]
  IC50: 200 µM

## C[C@](N)(Cc1ccc(O)c(O)c1)C(=O)O [α-methyl-3,4-dhydroxy-L-phenylalanine]
Tyrosine hydroxylase [1]; [10]
  IC50: 1500 µM

## C[C@@](N)(Cc1ccc(O)c(O)c1)C(=O)O [α-methyl-3,4-dhydroxy-D-phenylalanine]
Tyrosine hydroxylase [1]; [10]
  IC50: > 8000 µM

## N[C@@H](Cc1cc(Br)c(O)c(Br)c1)C(=O)O [3,5-dibromo -L-tyrosine]
Tyrosine hydroxylase [1]; [7]
  IC50: 500 µM

## CC(N)(Cc1ccc(O)c(Br)c1)C(=O)O (racemic) [3-bromo-α-methyl-DL-tyrosine]
Tyrosine hydroxylase [1]; [7]
  IC50: 1.5 µM

## C[C@](N)(Cc1ccc(O)cc1)C(=O)O [α-methyl-L-tyrosine]
Tyrosine hydroxylase [2]; [9]
  % Inhibition: 86%
Tyrosine hydroxylase [2]; concentration of 10^−4M, guinea pig brain particle preparations
  inhibition of tyrosine hydroxylase: 86%
[5]
  deposition of α-synuclein: blunted deposition of α-synuclein
  levels of oxidized dopamine: lower levels of oxidized dopamine
  oxidative stress: reduced oxidative stress
[6]; alpha-methyl-dopa, alpha-methyl-dopamine, alpha-methyl-norepinephrine
  metabolites recovered in the urine: relatively little
[6]
  oral absorption: ~69%
Tyrosine hydroxylase [1]; bovine adrenal gland preparations, read-out: concentration inhibiting tyrosine hydroxylase by 50%
  IC50: 25 µM
